Data published in patent US5240933A, “14-hydroxy-N-(2-methoxyethyl)-7,8-dihydromorphine and -norisomorphine, processes for the preparation thereof and the use thereof as pharmaceutical compositions” (Boehringer Ingelheim GmbH, priority 1991, dated 1993).

Legend:
[1] = phenylquinone writhing test (analgesic effect); format: in vivo
Procedure: (§1) In this test, compound 1a according to the invention has a mean effective dose (MED) of 2.5 mg/kg p.o. (64% effect) and compound 1b according to the invention has an MED of 10 mg/kg p.o. (71% effect). […] This small sodium shift indicates the […] nature of the compounds according to the invention.

opiate receptor [2] = experiment: opiate receptor binding test with [^3 H]-naloxon as radioligand
Procedure: as §1

opiate receptor [3] = biological target: opiate receptor (Homo sapiens, UniProt P35372); experiment: opiate receptor binding test with [^3 H]-dihydromorphine as radioligand
opiate receptor (Homo sapiens, UniProt P35372), sequence (P35372 whole entry): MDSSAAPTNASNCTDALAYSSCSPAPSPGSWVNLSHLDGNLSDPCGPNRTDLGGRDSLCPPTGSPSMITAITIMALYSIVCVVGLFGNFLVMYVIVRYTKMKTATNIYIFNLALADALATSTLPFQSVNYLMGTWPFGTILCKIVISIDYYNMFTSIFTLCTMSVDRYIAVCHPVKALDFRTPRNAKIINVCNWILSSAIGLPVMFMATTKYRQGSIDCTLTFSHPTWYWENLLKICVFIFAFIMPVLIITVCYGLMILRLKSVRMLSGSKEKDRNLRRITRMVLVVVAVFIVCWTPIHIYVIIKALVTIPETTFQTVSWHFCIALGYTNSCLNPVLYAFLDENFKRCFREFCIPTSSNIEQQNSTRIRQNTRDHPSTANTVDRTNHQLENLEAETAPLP
Procedure: as §1

[4] = with the addition of 0.1M sodium chloride

Row | Structure (SMILES) | effect ([1]; dose of 25 mg/kg p.o., comparison compound) | Ki (opiate receptor [2]; [4]) | Ki (opiate receptor [2]; without sodium chloride) | effect ([1]; at MED of 2.5 mg/kg p.o.) | Ki (opiate receptor [3]) | effect ([1]; at MED of 10 mg/kg p.o.)
1 | CC(C)Cc1ccc(C(C)C(=O)O)cc1 (stereo not drawn) [Ibuprofen, reference compound] | 65% | – | – | – | – | –
2 | COCCN1CC[C@]23c4c5ccc(O)c4O[C@H]2[C@@H](O)CC[C@@]3(O)[C@H]1C5 [compound 1a, 14-hydroxy-N-(2-methoxyethyl)-7,8-dihydronormorphine] | – | 2.39 nM | 2.14 nM | 64% | 0.91 nM | –
3 | COCCN1CC[C@]23c4c5ccc(O)c4O[C@H]2[C@H](O)CC[C@@]3(O)[C@H]1C5 [compound 1b, 14-hydroxy-N-(2-methoxyethyl)-7,8-dihydronorisomorphine] | – | 1.19 nM | 1.07 nM | – | 1.79 nM | 71%
